Read-outs that look alike come from different tables or passages of the source. *1 amine or outer side, *2 acyl side, *3 side chain or, on linkers, in order; H or OH if unused. Where a SMILES comes first, the peptide text is derived from it. Bridges are numbered along the chain shown (N, C = ends). [ ]: non-standard residue; d: D form. The star is where a group is joined. ξ: configuration not given here. hPhe(3-Cl-4-CF3) = N[C@@H](CCc1ccc(C(F)(F)F)c(Cl)c1)C(=O)O; NPrPhe(4-CF3) = CCCN[C@@H](Cc1ccc(C(F)(F)F)cc1)C(=O)O; X31 = C=CCN([C@@H](Cc1ccccc1)C(=O)[*:2])[*:1]; Pip(4,4-F2) = O=C(O)[C@@H]1CC(F)(F)CCN1; NMeGly(cPent) = CN[C@H](C(=O)O)C1CCCC1; NMeNle(5-ene) = C=CCC[C@H](NC)C(=O)O; Hyp = O=C(O)[C@@H]1C[C@@H](O)CN1; dIle(3ξ) = CCC(C)[C@@H](N)C(=O)O; NMeD = CN[C@@H](CC(=O)O)C(=O)O; NMeL = CN[C@@H](CC(C)C)C(=O)O; Morpholide = C1CN(*)CCO1; Ac5c = NC1(C(=O)O)CCCC1; Aze = O=C(O)[C@@H]1CCN1; Ac4c = NC1(C(=O)O)CCC1; NEtG = CCNCC(=O)O; Sar = CNCC(=O)O
Legend:
HRAS wild-type protein = HRAS wild-type protein (Homo sapiens, UniProt P01112); experiment: Binding to HRAS by surface plasmon resonance (SPR), KD and KD ratio to KRAS
In short: (§1)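 Recombinant RAS proteins bearing a biotinylated Avi tag and loaded with GDP served as the captured ligand, recaptured fresh every cycle. Binding responses were referenced to an uncoated surface and a buffer-only blank cycle. Dissociation constants were obtained by 1:1 model fitting at 30°C.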

[1] = tested on: human lung cancer strain NCI-H441; type: cell-based
In short: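 Signal came from […] measured per well once the reagent was added. Beforehand, cells were cultured at 37°C and 5% carbon dioxide on a compound series serially diluted in dimethyl sulfoxide.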

[2] = target: GDP-bound NRAS wild-type protein (Homo sapiens, UniProt P01111); experiment: Binding to NRAS by surface plasmon resonance (SPR), KD and KD ratio to KRAS
In short: as §1

[3] = ratio of KD for HRAS wild-type protein to KD for KRAS
[4] = ratio of KD for GDP-bound NRAS wild-type protein to KD for KRAS
[5] = ratio of the KD value with respect to HRAS wild-type protein to the KD value with respect to KRAS
[6] = ratio of the KD value with respect to GDP-bound NRAS wild-type protein to the KD value with respect to KRAS

Sequence of HRAS wild-type protein (P01112 whole entry): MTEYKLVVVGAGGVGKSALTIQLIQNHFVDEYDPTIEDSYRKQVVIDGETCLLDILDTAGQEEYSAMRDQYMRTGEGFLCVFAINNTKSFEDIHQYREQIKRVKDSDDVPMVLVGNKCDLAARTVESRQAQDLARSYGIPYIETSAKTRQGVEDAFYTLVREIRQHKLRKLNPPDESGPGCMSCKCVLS
Sequence of GDP-bound NRAS wild-type protein (P01111 whole entry): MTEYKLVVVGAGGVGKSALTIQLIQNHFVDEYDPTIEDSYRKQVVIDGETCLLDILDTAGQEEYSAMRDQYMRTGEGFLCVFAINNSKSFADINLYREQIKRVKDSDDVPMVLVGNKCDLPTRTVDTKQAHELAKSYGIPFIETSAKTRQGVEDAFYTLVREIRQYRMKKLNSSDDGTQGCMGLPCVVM

Row | Structure (SMILES) | HRAS /KRAS (HRAS wild-type protein; [3]) | IC50 [1] [µM] | NRAS /KRAS [2, 4] | HRAS /KRAS (HRAS wild-type protein; [5]) | NRAS /KRAS [2, 6] | IC50 ([1]; NCI-H441 cells, 4 days, CellTiter-Glo, read-out: NCl-H441 IC50) [µM]
1 | CCO[C@@H]1C[C@H]2C(=O)NC3(CCC3)C(=O)N(C)[C@@H](C3CCCC3)C(=O)N(C)[C@H](C(=O)N(C)C)CC(=O)N(C)[C@@H](CC)C(=O)N[C@@H]([C@@H](C)CC)C(=O)N(C)CC(=O)N(C)[C@H]3CCCCN(C3=O)[C@@H](Cc3ccc(C(F)(F)F)cc3)C(=O)N(C)CC(=O)N[C@@H](CCc3cc(Cl)c(C(F)(F)F)c(Cl)c3)C(=O)N2C1 [PP0985] | C (A compound having a KD ratio of 0.1 or more and less than 3 is denoted as C) | 0.0122 | C (A compound having a KD ratio of 0.1 or more and less than 3 is denoted as C) | – | – | –
2 | CCCN1C(=O)CN(C)C(=O)CN(CC)C(=O)[C@H]([C@@H](C)CC)NC(=O)[C@H](CC(C)C)N(C)C(=O)C[C@@H](C(=O)N2CCOCC2)N(C)C(=O)[C@H](C2CCCC2)N(C)C(=O)C2(CCCC2)NC(=O)[C@@H]2CC(F)(F)CCN2C(=O)[C@H](CCc2ccc(C(F)(F)F)c(Cl)c2)NC(=O)CN(C)C(=O)[C@@H]1Cc1ccc(C(F)(F)F)cc1 [PP0298] ([NMeL]I[NEtG][Sar][NPrPhe(4-CF3)][Sar][hPhe(3-Cl-4-CF3)][Pip(4,4-F2)][Ac5c][NMeGly(cPent)][NMeD]-Morpholide; lactam N-11) | C (A compound having a KD ratio of 0.1 or more and less than 3 is denoted as C) | 0.0411 | B (a compound having 3 or more and less than 10 is denoted as B) | – | – | –
3 | CCC[C@H]1C(=O)N[C@@H]([C@@H](C)CC)C(=O)N(C)CC(=O)N(C)[C@H]2C/C=C\CCN(C2=O)[C@@H](Cc2ccc(C(F)(F)F)cc2)C(=O)N(C)CC(=O)N[C@@H](CCc2ccc3ccn(C)c3c2)C(=O)N2C[C@H](OCC)C[C@H]2C(=O)NC2(CC(C)(C)C2)C(=O)N(C)[C@@H](C2CCCC2)C(=O)N(C)[C@H](C(=O)N(C)C)CC(=O)N1C [PP2901] | A (a compound having 10 or more and less than 20 is denoted as A) | 0.0865 | A (a compound having 10 or more and less than 20 is denoted as A) | – | – | –
4 | CCO[C@@H]1C[C@H]2C(=O)NC3(CCC3)C(=O)N(C)[C@@H](C3CCCC3)C(=O)N(C)[C@H](C(=O)N(C)C)CC(=O)N(C)[C@@H](CC3CC3)C(=O)N[C@@H]([C@@H](C)CC)C(=O)N(C)CC(=O)N(C)[C@H]3CCCCN(C3=O)[C@@H](Cc3ccc(C(F)(F)F)cc3)C(=O)N(C)CC(=O)N[C@@H](CCc3cc(F)c(C(F)(F)F)c(F)c3)C(=O)N2C1 [PP0697] | – | 0.0038 | – | C (A compound having a KD ratio of 0.1 or more and less than 3 is denoted as C) | C (A compound having a KD ratio of 0.1 or more and less than 3 is denoted as C) | –
5 | CCO[C@@H]1C[C@H]2C(=O)NC3(CCC3)C(=O)N(C)[C@@H](C3CCCC3)C(=O)N(C)[C@H](C(=O)N(C)CC)CC(=O)N(C)[C@@H](C3CC3)C(=O)N[C@@H]([C@@H](C)CC)C(=O)N(C)CC(=O)N(C)[C@H]3C/C=C\CCN(C3=O)[C@@H](Cc3ccc(C(F)(F)F)cc3)C(=O)N(C)CC(=O)N[C@@H](CCc3ccc(C(F)(F)F)c(OC)c3)C(=O)N2C1 [PP2021] | – | 0.0049 | – | B (a compound having 3 or more and less than 10 is denoted as B) | A (a compound having 10 or more and less than 20 is denoted as A) | –
6 | CCCN1C(=O)CN(C)C(=O)[C@@H]2CCN2C(=O)[C@H]([C@@H](C)CC)NC(=O)[C@H](CC(C)C)N(C)C(=O)C[C@@H](C(=O)N2CCOCC2)N(C)C(=O)[C@H](C2CCCC2)N(C)C(=O)C2(CCCC2)NC(=O)CN(C)C(=O)[C@H](CCc2ccc(C(F)(F)F)c(Cl)c2)NC(=O)CN(C)C(=O)[C@@H]1Cc1ccc(C(F)(F)F)cc1 [PP0314] ([NMeL]I[Aze][Sar][NPrPhe(4-CF3)][Sar][hPhe(3-Cl-4-CF3)][Sar][Ac5c][NMeGly(cPent)][NMeD]-Morpholide; lactam N-11) | C (A compound having a KD ratio of 0.1 or more and less than 3 is denoted as C) | 0.0581 | B (a compound having 3 or more and less than 10 is denoted as B) | – | – | –
7 | CCC[C@H]1C(=O)N[C@@H]([C@@H](C)CC)C(=O)N(C)CC(=O)N(C)[C@H]2C/C=C\CCN(C2=O)[C@@H](Cc2ccc(C(F)(F)F)cc2)C(=O)N(C)CC(=O)N[C@@H](CCc2cc(F)c(C(F)(F)F)c(F)c2)C(=O)N(C)[C@@H](COC)C(=O)NC2(CC(C)(C)C2)C(=O)N(C)[C@@H](C2CCCC2)C(=O)N(C)[C@H](C(=O)N(C)C)CC(=O)N1C [PP1936] | – | 0.0123 | – | A (a compound having 10 or more and less than 20 is denoted as A) | AA (a compound having 20 or more is denoted as AA) | –
8 | CC[C@H](C)[C@@H]1NC(=O)[C@H](C2CCC2)N(C)C(=O)C[C@@H](C(=O)N(C)CC)N(C)C(=O)[C@H](C2CCCC2)N(C)C(=O)C2(CC(C)(C)C2)NC(=O)[C@@H]2C[C@H](C)CN2C(=O)[C@H](CCc2cc(F)c(C(F)(F)F)c(F)c2)NC(=O)CN(C)C(=O)[C@H](Cc2ccc(C(F)(F)F)cc2)N2CC/C=C\C[C@@H](C2=O)N(C)C(=O)CN(C)C1=O [PP1984] | – | 0.0508 | – | A (a compound having 10 or more and less than 20 is denoted as A) | A (a compound having 10 or more and less than 20 is denoted as A) | –
9 | CCO[C@@H]1C[C@H]2C(=O)NC3(CC(C)(C)C3)C(=O)N(C)[C@@H](C3CCCC3)C(=O)N(C)[C@H](C(=O)N(C)C)CC(=O)N(C)[C@@H](CC(C)C)C(=O)N[C@@H]([C@@H](C)CC)C(=O)N(C)CC(=O)N(C)[C@H]3C/C=C\CCN(C3=O)[C@@H](Cc3ccc(C(C)C)cc3)C(=O)N(C)CC(=O)N[C@@H](CCc3ccc(C(F)(F)F)c(OC)c3)C(=O)N2C1 [PP2692] | A (a compound having 10 or more and less than 20 is denoted as A) | 0.0077 | A (a compound having 10 or more and less than 20 is denoted as A) | – | – | –
10 | CCCN1C(=O)CN(C)C(=O)CNC(=O)[C@H]([C@@H](C)CC)NC(=O)[C@H](CC(C)C)N(C)C(=O)C[C@@H](C(=O)N2CCOCC2)N(C)C(=O)[C@H](C2CCCC2)N(C)C(=O)C2(CCC2)NC(=O)[C@@H]2C[C@@H](OCC)CN2C(=O)[C@H](CCc2ccc(C(F)(F)F)c(Cl)c2)NC(=O)CN(C)C(=O)[C@@H]1Cc1ccc(C(F)(F)F)cc1 [PP0397] ([NMeL]IG[Sar][NPrPhe(4-CF3)][Sar][hPhe(3-Cl-4-CF3)][Hyp](Et)[Ac4c][NMeGly(cPent)][NMeD]-Morpholide; lactam N-11) | – | 0.0007 | – | C (A compound having a KD ratio of 0.1 or more and less than 3 is denoted as C) | C (A compound having a KD ratio of 0.1 or more and less than 3 is denoted as C) | –
11 | C=CCC[C@H]1C(=O)N(CC=C)[C@@H](Cc2ccccc2)C(=O)N(C)CC(=O)N[C@@H](CCc2ccc(C(F)(F)F)c(Cl)c2)C(=O)N2CCC[C@H]2C(=O)NC2(CCCC2)C(=O)N(C)[C@@H](C2CCCC2)C(=O)N(C)[C@H](C(=O)N2CCOCC2)CC(=O)N(C)[C@@H](CC(C)C)C(=O)N[C@H](C(C)CC)C(=O)N(C)CC(=O)N1C (stereo partly drawn) [PP0599] ([NMeL][dIle(3ξ)][Sar][NMeNle(5-ene)][X31][Sar][hPhe(3-Cl-4-CF3)]P[Ac5c][NMeGly(cPent)][NMeD]-Morpholide; lactam N-11) | – | 2.8 | – | B (a compound having 3 or more and less than 10 is denoted as B) | C (A compound having a KD ratio of 0.1 or more and less than 3 is denoted as C) | –
12 | CC[C@H](C)[C@@H]1NC(=O)[C@H](CC)N(C)C(=O)C[C@@H](C(=O)N(C)C)N(C)C(=O)[C@H](C2CCCC2)N(C)C(=O)C2(CC(C)(C)C2)NC(=O)[C@H](CC)N(C)C(=O)[C@H](CCc2cc(F)c(C(F)(F)F)c(F)c2)NC(=O)CN(C)C(=O)[C@H](Cc2ccc(C(F)(F)F)cc2)N2CC/C=C\C[C@@H](C2=O)N(C)C(=O)CN(C)C1=O [PP1935] | – | 0.0131 | – | A (a compound having 10 or more and less than 20 is denoted as A) | A (a compound having 10 or more and less than 20 is denoted as A) | –
13 | CCOC[C@H]1C(=O)N[C@@H]([C@@H](C)CC)C(=O)N(C)CC(=O)N(C)[C@H]2C/C=C\CCN(C2=O)[C@@H](Cc2ccc(C(C)=O)cc2)C(=O)N(C)CC(=O)N[C@@H](CCc2ccc(C(F)(F)F)c(OC)c2)C(=O)N2C[C@@H](C)C[C@H]2C(=O)NC2(CC(C)(C)C2)C(=O)N(C)[C@@H](C2CCCC2)C(=O)N(C)[C@H](C(=O)N(C)CC)CC(=O)N1C [PP2703] | A (a compound having 10 or more and less than 20 is denoted as A) | – | AA (a compound having 20 or more is denoted as AA) | – | – | 0.0805
